Reference: patent US20230234917A1, “ASPARAGINE DERIVATIVES AND METHODS OF USING SAME” (priority 2020, published 2023)

Columns and labels:
[1] = biological target: T1, ClbP (Escherichia coli, UniProt Q0P7K6); assay: ClbP whole cell activity (inhibition) assay, fluorogenic substrate; format: cell-based, E. coli
Method: Whole Cell Activity Assay
(§1) 1) E. coli ClbP+ were taken from a frozen stock and streaked onto BHI plates. They were grown aerobically at 37° C. overnight in the incubator.
(§2) 1) A single colony was selected from the plate and inoculated into 30 mL LB in a 50 mL conical vial eight times (240 mL total). The bacteria were grown aerobically overnight (16-20 h) at 37° C. on a nutator with rocking.
1) The saturated overnight culture was centrifuged to create a firm pellet (3,200 g, 10 min, 4° C.). In a biosafety cabinet, the supernatant was removed and then the pellet was resuspended in 30 mL sterile PBS.
2) The bacteria were centrifuged again (3,200 g, 10 min, 4° C.). The supernatant was removed, and the pellet was resuspended in sterile PBS buffer (6 mL) in each of the 8 tubes. This fivefold concentrated bacterial solution was the working solution.
3) The bacterial working solution (192 μL) was mixed with inhibitor (6 μL, final concentration was 300, 100, 33.3, 11.1, 3.7, 1.2, 0.4, or 0 μM). Fluorogenic substrate (2 μL, final concentration 5 μM) was immediately added across the plate to initiate the reaction. As a control, each plate contained Compound No. III in this dose response curve. The bacterial concentration was fivefold concentrated compared to the original saturated overnight culture. Carryover from DMSO was 4% (v/v). All compounds were tested in singlicate.
(§3) 4) The plate was loaded into a spectrophotometer preheated to 37° C. The fluorescence was recorded every 2 min for 46 min. The excitation wavelength was 360 nm (20 nm bandwidth), the emission wavelength was 460 nm (20 nm bandwidth), the optics position was bottom, the gain was 65, the light source was a tungsten bulb, and the read speed was normal.
(§4) 5) The linear portion of the fluorescence increase was 10-30 min. The rate of fluorescence increase (A.U./min) for each well in an inhibitor series was normalized to the 0 μM inhibitor condition. The normalized activity as a function of inhibitor concentration was then fit to a three parameter IC50 curve in Graphpad Prism.
(§5) “A” indicates an IC50 value less than 100 μM, “B” indicates an IC50 between 100 and 300 μM, “C” indicates an IC50 above 300 μM.

[2] = biological target: T1, ClbP; assay: ClbP cell lysate activity (inhibition) assay, fluorogenic substrate; format: biochemical; settings: ClbP Lysate Inhibition Assay: IC50, E. coli ClbP+ lysozyme-EDTA lysates, 5 μM fluorogenic substrate, inhibitor 0-300 μM, 37° C., singlicate
Method: Cell Lysate Activity Assay
as §1, §2
1) The saturated overnight culture was centrifuged to create a firm pellet (3,200 g, 10 min, 4° C.). The supernatant was removed and then the pellet was resuspended in 30 mL sterile PBS.
2) The bacteria were centrifuged again (3,200 g, 10 min, 4° C.). The supernatant was removed, and the pellet was resuspended in sterile PBS buffer (3 mL) in each 8 tubes to make a tenfold concentrated bacterial solution.
3) A lysozyme-EDTA (LE) solution was made in ddH2O (0.05 mg/mL lysozyme, 0.25 M EDTA).
4) For each of the eight tubes, LE solution (3 mL) was mixed with concentrated bacterial solution (3 mL). This mixture was incubated at 37° C. for 30 min to generate the lysates.
5) The lysates (192 μL) were mixed with inhibitor (6 μL, final concentration was 300, 100, 33.3, 11.1, 3.7, 1.2, 0.4, or 0 μM). Fluorogenic substrate (2 μL, final concentration 5 μM) was immediately added across the plate to initiate the reaction. As a control, each plate contained Compound No. III in this dose response curve. The final concentration of bacterial lysates was fivefold concentrated compared to the original saturated overnight culture. Carryover from DMSO was 4% (v/v). All compounds were tested in singlicate.
as §3, with “6)” for “4)”
as §4, with “7)” for “5)”, “0-20” for “10-30”
as §5

[3] = biological target: Full-length WT ClbP (Escherichia coli, UniProt Q0P7K6); assay: ClbP molecular (purified protein) enzymatic inhibition assay, fluorogenic substrate; format: biochemical, E. coli
Method: ClbP Molecular (Purified Protein) Assay
1) Full-length WT ClbP was thawed on ice. A diluted enzyme solution (2 nM) was made by mixing 3.57 μL of enzyme with 20 mL of reaction buffer (50 mM Tris pH 8.0, 200 mM NaCl, 0.02% (w/v) n-dodecyl-b-D-maltoside (DDM)).
2) In a 96 well plate, the diluted protein solution (73.5 μL) was mixed with inhibitor (1.5 μL, of varying concentrations, see below) and preincubated for 15 min at room temperature. Then, reaction buffer (75 μL) containing 10 μM fluorogenic substrate was added to initiate the reaction. After addition of substrate, the final concentrations were 1 nM full-length WT ClbP, 5 μM fluorogenic substrate in 50 mM Tris pH 8.0, 200 mM NaCl, 0.02% (w/v) DDM, with either 0, 0.14, 0.41, 1.2, 3.7, 11, 33, or 100 μM inhibitor. For all conditions, the DMSO carryover was 2% (v/v) at the preincubation stage and 1% in the reaction stage. Compound No. III was always present as a control in each plate, and all compounds were tested in singlicate. In previous assays, the Km of the fluorogenic substrate was determined to be approximately 5 μM.
3) Immediately after addition of substrate to enzyme, the plate was transferred into a spectrophotometer held at room temperature. The fluorescence was recorded every 1.5 min for 15 min. The excitation wavelength was 360 nm (20 nm bandwidth), the emission wavelength was 440 nm (20 nm bandwidth), the optics position was bottom, the gain was extended, the light source was a xenon flash lamp, and the read speed was normal.
as §4, with “4)” for “5)”, “is at least from 0-6 min, so this time regime is used.” for “was 10-30 min.”
as §5

SMILES: CCCCCCCC(=O)N[C@H](CC(N)=O)C(=O)NCCC1CCN(C)CC1 [Compound CCXIX]
- IC50 [1]: < 100 µM
- IC50 [2]: 100 to 300 µM
- IC50 [3]: < 100 µM

SMILES: CCCCCCCC(=O)N[C@H](CC(N)=O)c1nnc(CCc2ccccc2)o1 [Compound CCXI]
- IC50 [1]: > 300 µM
- IC50 [2]: > 300 µM
- IC50 [3]: 100 to 300 µM

SMILES: NC(=O)C[C@@H](NC(=O)CCC1CCCCC1)C(=O)NCCc1ccccc1 [Compound CCXLIII]
- IC50 [1]: < 100 µM
- IC50 [2]: < 100 µM
- IC50 [3]: < 100 µM

SMILES: NC(=O)C[C@@H](NC(=O)CCC1CCCCC1)C(=O)NCCc1ccc(O)cc1 [Compound CCXLII]
- IC50 [1]: < 100 µM
- IC50 [2]: < 100 µM
- IC50 [3]: < 100 µM

SMILES: CCCCCCCC(=O)N[C@H](CC(N)=O)C(=O)N[C@@H](C)Cc1ccc(O)cc1 [Compound CCXLIV]
- IC50 [1]: < 100 µM
- IC50 [2]: < 100 µM
- IC50 [3]: < 100 µM

SMILES: CCCCCCCC(=O)N[C@H](CC(N)=O)C(=O)NCCc1ccc(OC)c(OC)c1 [Compound CCXLIX]
- IC50 [1]: < 100 µM
- IC50 [2]: < 100 µM
- IC50 [3]: < 100 µM

SMILES: NC(=O)C[C@@H](NC(=O)CCCC1CCCCCC1)C(=O)NCCc1ccc(O)cc1 [Compound CCXLI]
- IC50 [1]: < 100 µM
- IC50 [2]: < 100 µM
- IC50 [3]: < 100 µM

SMILES: CCCCCCCC(=O)N[C@H](CC(N)=O)C(=O)NCCc1cccc(OC)c1 [Compound CCXLVIII]
- IC50 [1]: 100 to 300 µM
- IC50 [2]: < 100 µM
- IC50 [3]: < 100 µM

SMILES: CCCCCCCC(=O)N[C@H](CC(=O)NC)C(=O)NCCc1ccc(O)cc1 [Compound CCXLVI]
- IC50 [1]: < 100 µM
- IC50 [2]: 100 to 300 µM
- IC50 [3]: < 100 µM

SMILES: CCCCCCCC(=O)N[C@H](CC(N)=O)C(=O)N[C@H](C)Cc1ccc(O)cc1 [Compound CCXLV]
- IC50 [1]: < 100 µM
- IC50 [2]: < 100 µM
- IC50 [3]: < 100 µM

SMILES: NC(=O)C[C@@H](NC(=O)/C=C/CC1CCCCCC1)C(=O)NCCc1ccc(O)cc1 [Compound CCXL]
- IC50 [1]: < 100 µM
- IC50 [2]: < 100 µM
- IC50 [3]: < 100 µM

SMILES: CCCCCCCC(=O)N[C@H](CC(N)=O)C(=O)NCCC1CCNCC1 [Compound CCXVIII]
- IC50 [1]: < 100 µM
- IC50 [2]: < 100 µM
- IC50 [3]: 100 to 300 µM

SMILES: CCCCCCCC(=O)N[C@H](CC(=O)NC)C(=O)NCCc1ccccc1 [Compound CCXVI]
- IC50 [1]: < 100 µM
- IC50 [2]: 100 to 300 µM
- IC50 [3]: 100 to 300 µM

SMILES: CCCCCCCC(=O)N[C@H](CC(N)=O)C(=O)NCCc1cccc(O)c1 [Compound CCXXIII]
- IC50 [1]: < 100 µM
- IC50 [2]: < 100 µM
- IC50 [3]: < 100 µM

SMILES: NC(=O)C[C@@H](NC(=O)CCCC1CCCCC1)C(=O)NCCc1ccc(O)cc1 [Compound CCXXII]
- IC50 [1]: < 100 µM
- IC50 [2]: < 100 µM
- IC50 [3]: < 100 µM

SMILES: CCCCCCCC(=O)N[C@H](CC(N)=O)C(=O)NCCc1ccccc1O [Compound CCXXIV]
- IC50 [1]: < 100 µM
- IC50 [2]: < 100 µM
- IC50 [3]: < 100 µM

SMILES: CCCCCCCCCC(=O)N[C@H](CC(N)=O)C(=O)NCCc1ccc(O)cc1 [Compound CCXXI]
- IC50 [1]: < 100 µM
- IC50 [2]: < 100 µM
- IC50 [3]: < 100 µM

SMILES: CCCCCCCC(=O)N[C@H](CC(N)=O)C(=O)NCCn1cccn1 [Compound CCXXVIII]
- IC50 [1]: < 100 µM
- IC50 [2]: < 100 µM
- IC50 [3]: < 100 µM

SMILES: CCCCCCCC(=O)N[C@H](CC(N)=O)C(=O)NCCc1c[nH]cn1 [Compound CCXXVII]
- IC50 [1]: < 100 µM
- IC50 [2]: < 100 µM
- IC50 [3]: < 100 µM

SMILES: CCCCCCCC(=O)N[C@H](CC(N)=O)C(=O)NCCc1ccc(O)c(O)c1 [Compound CCXXVI]
- IC50 [1]: < 100 µM
- IC50 [2]: < 100 µM
- IC50 [3]: < 100 µM

SMILES: CCCCCCCC(=O)N[C@H](CC(N)=O)C(=O)NCCc1ccc(O)cc1O [Compound CCXXV]
- IC50 [1]: < 100 µM
- IC50 [2]: < 100 µM
- IC50 [3]: < 100 µM

SMILES: CCCCCCCC(=O)N[C@H](CC(N)=O)C(=O)NCCc1nnn[nH]1 [Compound CCXXXIII]
- IC50 [1]: < 100 µM
- IC50 [2]: < 100 µM
- IC50 [3]: < 100 µM

SMILES: CCCCCCCC(=O)N[C@H](CC(N)=O)C(=O)NCCc1cncs1 [Compound CCXXXII]
- IC50 [1]: < 100 µM
- IC50 [2]: < 100 µM
- IC50 [3]: < 100 µM

SMILES: CCCCCCCC(=O)N[C@H](CC(N)=O)C(=O)NCCn1cnnc1 [Compound CCXXXIV]
- IC50 [1]: < 100 µM
- IC50 [2]: > 300 µM
- IC50 [3]: 100 to 300 µM

SMILES: NC(=O)C[C@@H](NC(=O)CCCC1CCCCCC1)C(=O)NCCc1ccccc1 [Compound CCXXXIX]
- IC50 [1]: < 100 µM
- IC50 [2]: < 100 µM
- IC50 [3]: < 100 µM

SMILES: CCCCCCCC(=O)N[C@H](CC(N)=O)C(=O)NCCc1ccco1 [Compound CCXXXI]
- IC50 [1]: < 100 µM
- IC50 [2]: < 100 µM
- IC50 [3]: < 100 µM

SMILES: NC(=O)C[C@@H](NC(=O)/C=C/CC1CCCCCC1)C(=O)NCCc1ccccc1 [Compound CCXXXVIII]
- IC50 [1]: < 100 µM
- IC50 [2]: < 100 µM
- IC50 [3]: < 100 µM

SMILES: CCCCCCCC(=O)N[C@H](CC(N)=O)C(=O)NCCc1ccc(OC)nc1 [Compound CCXXXVII]
- IC50 [1]: < 100 µM
- IC50 [2]: < 100 µM
- IC50 [3]: < 100 µM

SMILES: CCCCCCC(F)(F)C(=O)N[C@H](CC(N)=O)C(=O)NCCc1ccc(O)cc1 [Compound CCXXXVI]
- IC50 [1]: > 300 µM
- IC50 [2]: < 100 µM
- IC50 [3]: < 100 µM

SMILES: CCCCCCCC(=O)N[C@H](CC(N)=O)C(=O)NCCc1ccc(=O)[nH]c1 [Compound CCXXXV]
- IC50 [1]: < 100 µM
- IC50 [2]: > 300 µM
- IC50 [3]: < 100 µM

SMILES: CCCCCCCC(=O)N[C@H](CC(N)=O)C(=O)NCCc1cccnc1 [Compound CCXXX]
- IC50 [1]: < 100 µM
- IC50 [2]: < 100 µM
- IC50 [3]: < 100 µM

SMILES: CCCCCCCC(=O)N[C@H](CC(N)=O)C(=O)NCCN1CCNCC1 [Compound CCXX]
- IC50 [1]: < 100 µM
- IC50 [2]: < 100 µM
- IC50 [3]: < 100 µM

SMILES: CCCCCCCNC(=O)[C@H](CC(N)=O)NC(=O)Oc1ccccc1 [Compound CCX]
- IC50 [1]: > 300 µM
- IC50 [2]: > 300 µM
- IC50 [3]: 100 to 300 µM

SMILES: CCCCCCCC(=O)N[C@H](CC(N)=O)[C@H](O)CCCc1ccccc1 [Compound CXCII]
- IC50 [1]: > 300 µM
- IC50 [2]: < 100 µM
- IC50 [3]: 100 to 300 µM
